Data taken from patent publication US10472341B2, “Bicyclic tetrahydrothiazepine derivatives useful for the treatment of neoplastic and/or infectious diseases” (APEIRON BIOLOGICS AG, priority 2015, dated 2019).
Structures can show the parent of a compound that is named as a salt. Where two headings read alike, the source gives them in different places.

Key:
Assay type in all cases: cell-based
[1] = tested on: CD4 T cells; test: CD69 expression on aCD3/aCD28 stimulated isolated human CD4 T cells (flow cytometry); conditions: 24 h after TCR stimulation, read-out: Activity Class CD69 (CD4)
Description: (§1) Isolated T cells were plated in Xvivo medium at 1.5*10 ^5 cells per in 96 well culture plates and TCR-stimulated with anti-CD3/28 mAbs in the presence of compound as indicated. Cytokine production was determined at 24 h or 48 h following TCR stimulation in cell culture supernatants using commercially available ELISA kits (BD and eBioscience) as recommended by the manufacturer. T cell proliferation and CD25 expression (CD25-PC5 reagent purchased from Beckman Coulter) was determined by flow cytometry (Beckman-Coulter FC500) and analysed with Kaluza Software. For measurement of CD69 expression, isolated CD4 and CD8 T cells were plated in Xvivo medium at […] per in 96 well culture plates and TCR-stimulated with anti-CD3/28 mAbs in the presence of compound. CD69 expression was determined at 24 h following TCR stimulation by flow cytometry (CD4eF450, CD8APCeF780 and CD69-PC7 reagent purchased from eBioscience) and analysed with Kaluza Software.
(§2) For measurement of CD69 expression, isolated CD4 and CD8 T cells were plated in Xvivo medium at 80000 cells per in 96 well culture plates and TCR-stimulated with anti-CD3/28 mAbs in the presence of compound. CD69 expression was determined at 24 h following TCR stimulation by flow cytometry (CD4eF450, CD8APCeF780 and CD69-PC7 reagent purchased from eBioscience) and analysed with Kaluza Software.

[2] = tested on: aCD3/aCD28-stimulated human PBMCs; test: Cytokine production in aCD3/aCD28 stimulated human PBMCs; conditions: PBMC, 18 h
Method in brief: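 Ficoll-isolated human PBMCs at 1e6 cells/mL in X-Vivo15, stimulated with soluble anti-CD3/CD28 (OKT3 and 28.2, 1 μg/mL each) plus compound for 18 h at 37° C. Supernatant cytokines quantified by MSD or HTRF.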

[3] = tested on: CD8 T cells; test: CD69 expression on aCD3/aCD28 stimulated isolated human CD8 T cells (flow cytometry); conditions: T-cell, 24 h after TCR stimulation, read-out: Activity Class CD69 (CD8)
Description: as §1, §2

[4] = enhancement of IFN-γ production, read-out: Activity Class IFN-γ
[5] = enhancement of IL-2 production, read-out: Activity Class IL-2

Row | SMILES | EC50 [1] [nM] | EC50 [3] [nM] | EC50 [2, 4] [nM] | EC50 [2, 5] [nM]
1 | N[C@H]1CS(=O)(=O)c2cc(F)c(C(=O)NCC3CCOCC3)cc2N(Cc2ccc(F)cc2)C1=O [Example 139, (3R)-3-amino-8-fluoro-5-[(4-fluorophenyl)methyl]-N-[(oxan-4-yl)methyl]-1,1,4-trioxo-2,3,4,5-tetrahydro-1λ^6,5-benzothiazepine-7-carboxamide hydrochloride] | 1580 to 5010 | > 5010 | 1580 to 5010 | 1580 to 5010
2 | N[C@H]1CS(=O)(=O)c2cc(F)c(C(=O)NC3CC(F)(F)C3)cc2N(Cc2ccc(F)cc2)C1=O [Example 140, (3R)-3-amino-N-(3,3-difluorocyclobutyl)-8-fluoro-5-[(4-fluorophenyl)methyl]-1,1,4-trioxo-2,3,4,5-tetrahydro-1λ^6,5-benzothiazepine-7-carboxamide hydrochloride] | 1580 to 5010 | > 5010 | 1580 to 5010 | 1580 to 5010
3 | COc1ccc(CN2C(=O)[C@@H](N)CS(=O)(=O)c3cc(F)c(C(=O)NCC4CCOCC4)cc32)cc1 [Example 142, (3R)-3-amino-8-fluoro-5-[(4-methoxyphenyl)methyl]-N-[(oxan-4-yl)methyl]-1,1,4-trioxo-2,3,4,5-tetrahydro-1λ^6,5-benzothiazepine-7-carboxamide] | > 5010 | > 5010 | 1580 to 5010 | 1580 to 5010
4 | N[C@H]1CS(=O)(=O)c2ccc(C(=O)NC3CC(F)(F)C3)cc2N(Cc2ccc(Cl)cc2)C1=O [Example 145, (3R)-3-amino-5-[(4-chlorophenyl)methyl]-N-(3,3-difluorocyclobutyl)-1,1,4-trioxo-2,3,4,5-tetrahydro-1λ^6,5-benzothiazepine-7-carboxamide] | < 1580 | < 1580 | 1580 to 5010 | 1580 to 5010
5 | N[C@H]1CS(=O)(=O)c2cc(F)c(C(=O)N[C@H]3CCC(F)(F)C3)cc2N(Cc2ccc(Cl)cc2)C1=O [Example 146, (3R)-3-amino-5-[(4-chlorophenyl)methyl]-N-[(1S)-3,3-difluorocyclopentyl]-8-fluoro-1,1,4-trioxo-2,3,4,5-tetrahydro-1λ^6,5-benzothiazepine-7-carboxamide] | 1580 to 5010 | 1580 to 5010 | < 1580 | < 1580
6 | COc1ccc(CNC(=O)c2ccc3c(c2)N(Cc2ccc(Cl)cc2)C(=O)[C@@H](N)CS3(=O)=O)cc1 [Example 153, (3R)-3-amino-5-[(4-chlorophenyl)methyl]-N-[(4-methoxyphenyl)methyl]-1,1,4-trioxo-2,3,4,5-tetrahydro-1λ^6,5-benzothiazepine-7-carboxamide] | < 1580 | < 1580 | < 1580 | < 1580
7 | COc1ccc(CN2C(=O)[C@@H](N)CS(=O)(=O)c3ccc(C(=O)NC4CCC(F)(F)CC4)cc32)cc1 [Example 154, (3R)-3-amino-N-(4,4-difluorocyclohexyl)-5-[(4-methoxyphenyl)methyl]-1,1,4-trioxo-2,3,4,5-tetrahydro-1λ^6,5-benzothiazepine-7-carboxamide] | 1580 to 5010 | < 1580 | 1580 to 5010 | > 5010
8 | N[C@H]1CS(=O)(=O)c2ccc(C(=O)NCCC(F)(F)F)cc2N(Cc2ccc(Cl)cc2)C1=O [Example 155, (3R)-3-amino-5-[(4-chlorophenyl)methyl]-1,1,4-trioxo-N-(3,3,3-trifluoropropyl)-2,3,4,5-tetrahydro-1λ^6,5-benzothiazepine-7-carboxamide] | < 1580 | < 1580 | 1580 to 5010 | 1580 to 5010
9 | N[C@H]1CS(=O)(=O)c2ccc(C(=O)N[C@@H]3CC3(F)F)cc2N(Cc2ccc(OC(F)F)cc2)C1=O [Example 160, (3R)-3-amino-N-[(1R)-2,2-difluorocyclopropyl]-5-{[4-(difluoromethoxy)phenyl]methyl}-1,1,4-trioxo-2,3,4,5-tetrahydro-1λ^6,5-benzothiazepine-7-carboxamide] | < 1580 | 1580 to 5010 | > 5010 | > 5010
10 | N[C@H]1CS(=O)(=O)c2cc(Cl)c(C(=O)NCCCC(F)(F)F)cc2N(Cc2ccc(Cl)cc2)C1=O [Example 163, (3R)-3-amino-8-chloro-5-[(4-chlorophenyl)methyl]-1,1,4-trioxo-N-(4,4,4-trifluorobutyl)-2,3,4,5-tetrahydro-1λ^6,5-benzothiazepine-7-carboxamide] | < 1580 | < 1580 | < 1580 | 1580 to 5010
11 | N[C@H]1CS(=O)(=O)c2ccc(C(=O)NCC3(F)CCOCC3)cc2N(Cc2ccc(Cl)cc2)C1=O [Example 165, (3R)-3-amino-5-[(4-chlorophenyl)methyl]-N-[(4-fluorooxan-4-yl)methyl]-1,1,4-trioxo-2,3,4,5-tetrahydro-1λ^6,5-benzothiazepine-7-carboxamide] | < 1580 | < 1580 | < 1580 | 1580 to 5010
12 | N[C@H]1CS(=O)(=O)c2ccc(C(=O)N[C@@H]3CCC(F)(F)C3)cc2N(Cc2ccc(Cl)cc2)C1=O [Example 169, (3R)-3-amino-5-[(4-chlorophenyl)methyl]-N-[(1R)-3,3-difluorocyclopentyl]-1,1,4-trioxo-2,3,4,5-tetrahydro-1λ^6,5-benzothiazepine-7-carboxamide] | < 1580 | < 1580 | < 1580 | < 1580

Continued, in another order:

Row | EC50 [1] [nM] | EC50 [3] [nM] | SMILES | EC50 [2, 4] [nM] | EC50 [2, 5] [nM]
13 | < 1580 | < 1580 | COc1ccc(CN2C(=O)[C@@H](N)CS(=O)(=O)c3cc(F)c(C(=O)NCCCC(F)(F)F)cc32)cc1 [Example 141, (3R)-3-amino-8-fluoro-5-[(4-methoxyphenyl)methyl]-1,1,4-trioxo-N-(4,4,4-trifluorobutyl)-2,3,4,5-tetrahydro-1λ^6,5-benzothiazepine-7-carboxamide] | < 1580 | < 1580
14 | 1580 to 5010 | > 5010 | COc1ccc(CN2C(=O)[C@@H](N)CS(=O)(=O)c3cc(F)c(C(=O)NC4CC4(F)F)cc32)cc1 (stereo partly drawn) [Example 143, (3R)-3-amino-N-(2,2-difluorocyclopropyl)-8-fluoro-5-[(4-methoxyphenyl)methyl]-1,1,4-trioxo-2,3,4,5-tetrahydro-1λ^6,5-benzothiazepine-7-carboxamide] | 1580 to 5010 | 1580 to 5010
15 | > 5010 | > 5010 | COc1ccc(CN2C(=O)[C@@H](N)CS(=O)(=O)c3ccc(C(=O)NCCCC(F)(F)F)cc32)cc1 [Example 150, (3R)-3-amino-5-[(4-methoxyphenyl)methyl]-1,1,4-trioxo-N-(4,4,4-trifluorobutyl)-2,3,4,5-tetrahydro-1λ^6,5-benzothiazepine-7-carboxamide] | 1580 to 5010 | 1580 to 5010
16 | 1580 to 5010 | < 1580 | COc1ccc(CNC(=O)c2ccc3c(c2)N(Cc2ccc(OC)cc2)C(=O)[C@@H](N)CS3(=O)=O)cc1 [Example 151, (3R)-3-amino-N,5-bis[(4-methoxyphenyl)methyl]-1,1,4-trioxo-2,3,4,5-tetrahydro-1λ^6,5-benzothiazepine-7-carboxamide] | 1580 to 5010 | 1580 to 5010
17 | 1580 to 5010 | 1580 to 5010 | COc1ccc(CNC(=O)c2ccc3c(c2)N(Cc2ccccc2)C(=O)[C@@H](N)CS3(=O)=O)cc1 [Example 152, (3R)-3-amino-5-benzyl-N-[(4-methoxyphenyl)methyl]-1,1,4-trioxo-2,3,4,5-tetrahydro-1λ^6,5-benzothiazepine-7-carboxamide] | 1580 to 5010 | > 5010
18 | 1580 to 5010 | 1580 to 5010 | N[C@H]1CS(=O)(=O)c2ccc(C(=O)N[C@@H]3CC3(F)F)cc2N(Cc2ccc(Cl)cc2)C1=O [Example 158, (3R)-3-amino-5-[(4-chlorophenyl)methyl]-N-[(1R)-2,2-difluorocyclopropyl]-1,1,4-trioxo-2,3,4,5-tetrahydro-1λ^6,5-benzothiazepine-7-carboxamide] | < 1580 | 1580 to 5010
19 | < 1580 | < 1580 | N[C@H]1CS(=O)(=O)c2ccc(C(=O)N[C@@H]3CC3(F)F)cc2N(Cc2ccc(C3CC3)cc2)C1=O [Example 159, (3R)-3-amino-5-[(4-cyclopropylphenyl)methyl]-N-[(1R)-2,2-difluorocyclopropyl]-1,1,4-trioxo-2,3,4,5-tetrahydro-1λ^6,5-benzothiazepine-7-carboxamide] | 1580 to 5010 | 1580 to 5010
20 | < 1580 | < 1580 | N[C@H]1CS(=O)(=O)c2ccc(C(=O)NCC3CC(F)(F)C3)cc2N(Cc2ccc(Cl)cc2)C1=O [Example 171, (3R)-3-amino-5-[(4-chlorophenyl)methyl]-N-[(3,3-difluorocyclobutyl)methyl]-1,1,4-trioxo-2,3,4,5-tetrahydro-1λ^6,5-benzothiazepine-7-carboxamide] | 1580 to 5010 | < 1580
